Assay results taken from article PMC7146753, “Self-Assembly, Nematic Phase Formation, and Organocatalytic Behavior of a Proline-Functionalized Lipopeptide” (ACS Applied Materials & Interfaces, 2020).
Where a SMILES comes first, the peptide text is derived from it. The star is where a group is joined. Palmitoyl = CCCCCCCCCCCCCCCC(=O)*; NHhexadecyl = CCCCCCCCCCCCCCCCN*

How the values were obtained:
[1] = system: human dermal fibroblast (HDFa) cells; details: 72 h
[2] = system: human breast cancer (MCF-7) cells; details: 72 h

| SMILES | IC50 [1] [µM] | IC50 [2] [µM] |
| --- | --- | --- |
| CCCCCCCCCCCCCCCC(=O)N[C@H](C(=O)N[C@@H](CCCCN)C(=O)N1CCC[C@H]1C(=O)N[C@@H](CCC(=O)O)C(=O)N[C@@H](C)C(=O)N1CCC[C@H]1C(=O)O)[C@@H](C)CC [C16-IKPEAP] (Palmitoyl-IKPEAP-OH) | 390 | 630 |
| CCCCCCCCCCCCCCCCNC(=O)[C@@H](NC(=O)[C@H](CCCCN)NC(=O)[C@@H]1CCCN1C(=O)[C@H](CCC(=O)O)NC(=O)[C@H](C)NC(=O)[C@@H]1CCCN1)[C@@H](C)CC [PAEPKI-C16] (H-PAEPKI-NHhexadecyl) | 100 | 230 |
